Test results: US10501493B2, “Broad spectrum antibiotics” (priority 2011, dated 2019)
In brackets after ≈: the same amount, converted by molar mass. Where two headings read alike, the source gives them in different places.

Columns and labels:
C. glutamicum DSM 44475 = assay: In vitro antimicrobial activity, MIC by broth micro-dilution; type: cell-based
[1] = system: E. coli MIG1655 LepB(P84L); assay: as above; type: cell-based
Outline: (§1)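 CLSI broth micro-dilution MIC against two-fold serial compound dilutions. Inoculum came from colonies grown 24 h at 35° C. or 28° C., suspended in cation-adjusted Mueller Hinton broth at 1*10^7 CFU/ml, of which 5 μl was added per 100 μl well. LepB(P84L) is a proline-mutant SPase strain with heightened arylomycin susceptibility.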

[2] = system: P. aeruginosa PA01 LepB(P84L); assay: as above; type: cell-based
Outline: as §1

S. agalactiae ATCC 13813 = assay: as above; type: cell-based
S. agalactiae COH-1 = assay: as above; type: cell-based
S. aureus ATCC 29213 = assay: as above; type: cell-based
[3] = system: S. aureus NCTC-8325 SpsB(P295); assay: as above; type: cell-based
[4] = system: S. epidermidis ATCC 12228; assay: as above; type: cell-based
[5] = system: S. epidermidis RP62A SpsIB(S29P); assay: as above; type: cell-based
[6] = system: S. epidermidis RP62A SpsIB(S31P); assay: as above; type: cell-based
S. epidermidis RP62A = assay: as above; type: cell-based; conditions: S. epidermidis RP62A
S. pneumoniae D39 = assay: as above; type: cell-based; conditions: S. pneumoniae D39
S. pneumoniae R800 = assay: as above; type: cell-based
Outline: as §1

S. pyogenes ATCC 19615 = assay: as above; type: cell-based
S. pyogenes M15448 = assay: as above; type: cell-based
Outline: as §1

E. coli SPase = biological target: T1, E. coli SPase (Escherichia coli, UniProt P00803); assay: Steady state binding constant (Kd) determination by fluorescence increase
T1 construct: Full length His-tagged E. coli SPase proteins were expressed in E. coli BL21(DE3); His-tag; made in house; host or cells: E. coli BL21(DE3)
Experimental: (§2) Full length His-tagged E. coli SPase proteins were expressed in E. coli BL21(DE3) containing the plasmid pET23-lepB, P. A. Smith et al. Chem Biol 2010, 1223-1231. Briefly, saturated overnight cultures grown in 20 ml of Luria-Bertani medium supplemented with ampicillin were subcultures into 1.5 L of Luria-Bertani, and shaken at 37° C. until an optical density at 600 nm of 0.4-0.5 was achieved. Protein expression was induced with Isopropyl β-D-1-thiogalactopyranoside (ITPG) at a final concentration of […], and purified using nickel affinity chromatography. Full length His-tagged S. aureus SPase protein was expressed similarly from E. coli BL21(DE3) containing the plasmid pCDF1-SaSpsB or pCDF1-SaSpsB(P29S) and purified similarly to the E. coli protein with the following exceptions. SPase protein was solubilized using 300 mM NaCl, 20 mM Tris pH 8.06, 5 mM Imidazole, 10% glycerol, 1% Triton X-100, prior to purification in Ni-NTA Superflow resin and resin bound protein was washed in a similar buffer containing 1% Elugent in place of Triton X-100 prior to protein eluted in wash buffer supplemented with 300 mM imidazole. Protein purify was judged to exceed 95% by visual inspection of SDS-PAGE followed by Comassie staining. All protein concentrations were determined by BCA assay.
(§3) Steady state binding constants (Kds) of compounds were determined by measuring an increase in fluorescence (λex=280 nm, λem=405 nm) that occurs upon binding to E. coli or S. aureus SPase protein. Two-fold serial dilutions of compounds were prepared in 100% DMSO, and compounds were diluted into binding buffer consisting of 100 mM NaCl, 20 mM Tris-HCl pH 7.4, 1 mM EDTA, 1% n-octyl-3-glucopyranoside (Anatrace), and 10% glycerol, with the final DMSO concentration equal to 1%. 70 μl of the resulting solutions containing various concentrations of compound in binding buffer were aliquoted into triplicate wells of a black polystyrene 384-well plate. 5 μl of blank solution or E. coli or S. aureus protein at concentrations of 750 or 3750 nM respectively, were added to each set of wells for a given inhibitor concentration. Plates were incubated for 14 hours and fluorescence read on an EnVision Multilable plate reader (Perkin Elmer™). Differences in fluorescence values between wells with and without protein were determined and background corrected for protein auto fluorescence. The corrected fluorescence difference data was fit to the quadratic equilibrium binding curve using the non-linear regression analysis software Solver (Frontline Systems®) run in Excel 2010, (Microsoft®), using experimentally determined quantum efficiency constants to convert fluorescence into nanomoles of protein/compound complex.

S. aureus SPase = biological target: T2, S. aureus SPase (Staphylococcus aureus, UniProt P0A070); assay: as above
T2 construct: Full length His-tagged S. aureus SPase protein was expressed similarly; His-tag; made in house; host or cells: E. coli BL21(DE3)
Experimental: as §2, §3

R. equi DSM 6939 = assay: In vitro antimicrobial activity, MIC by broth micro-dilution; type: cell-based
Outline: as §1

[7] = Corynebacterium glutamicum, DSM44475, read-out: MIC
[8] = Streptococcus agalactiae, ATCC13813, read-out: MIC
[9] = Staphylococcus aureus, ATCC29213, read-out: MIC
[10] = Staphylococcus aureus, NCTC8325
[11] = Staphylococcus epidermidis, ATCC12228, read-out: MIC
[12] = Staphylococcus epidermidis, read-out: MIC
[13] = Streptococcus pneumoniae, read-out: MIC
[14] = Streptococcus pyogenes, ATCC19615, read-out: MIC
[15] = Streptococcus agalactiae, COH1, S. agalactiae COH-1, read-out: MIC
[16] = Streptococcus pyogenes, S. pyogenes M15448, read-out: MIC

Row | SMILES | MIC (C. glutamicum DSM 44475; [7]) | MIC ([1]; Escherichia coli) | MIC ([2]; Pseudomonas aeruginosa) | MIC (S. agalactiae ATCC 13813; [8]) | MIC (S. agalactiae COH-1; Streptococcus agalactiae, COH1) | MIC (S. aureus ATCC 29213; [9]) | MIC [3, 10] | MIC [4, 11] | MIC ([5]; Staphylococcus epidermidis) | MIC ([6]; Staphylococcus epidermidis) | MIC (S. epidermidis RP62A; [12]) | MIC (S. pneumoniae D39; [13]) | MIC (S. pneumoniae R800; [13]) | MIC (S. pyogenes ATCC 19615; [14]) | MIC (S. pyogenes M15448; Streptococcus pyogenes, M15448) | Kd (E. coli SPase) | Kd (S. aureus SPase) | MIC (S. agalactiae COH-1; [15]) | MIC (S. pyogenes M15448; [16]) | further results
1 | CCCCCCCCCCCCCCCC(=O)N(C)[C@H](CO)C(=O)N[C@H](C)C(=O)NCC(=O)N(C)[C@@H]1C(=O)N[C@@H](C)C(=O)N[C@H](C(=O)N[C@H](C)C(=O)O)Cc2ccc(O)c(c2)-c2cc1ccc2O [Compound 19] | 16 µg/mL (≈ 16.8 µM) | 8 µg/mL (≈ 8.4 µM) | > 64 µg/mL | 32 µg/mL (≈ 33.6 µM) | > 64 µg/mL | > 64 µg/mL | > 64 µg/mL | 32 µg/mL (≈ 33.6 µM) | > 64 µg/mL | > 64 µg/mL | 8 µg/mL (≈ 8.4 µM) | 16 µg/mL (≈ 16.8 µM) | 32 µg/mL (≈ 33.6 µM) | 16 µg/mL (≈ 16.8 µM) | 32 µg/mL (≈ 33.6 µM) | 2.8 µM | 18 µM |  |  | 
2 | CCCCCCCCCCCCCCCC(=O)N(C)[C@H](CO)C(=O)N[C@H](C)C(=O)NCC(=O)N(C)[C@@H]1C(=O)N[C@@H](C)C(=O)N[C@H](C(=O)N[C@@H](C)C(=O)O)Cc2ccc(O)c(c2)-c2cc1ccc2O [Compound 20] | 64 µg/mL (≈ 67.2 µM) | 32 µg/mL (≈ 33.6 µM) | > 64 µg/mL | 32 µg/mL (≈ 33.6 µM) |  | > 64 µg/mL | > 64 µg/mL | 32 µg/mL (≈ 33.6 µM) | 32 µg/mL (≈ 33.6 µM) | > 64 µg/mL | 4 µg/mL (≈ 4.2 µM) | 16 µg/mL (≈ 16.8 µM) | 32 µg/mL (≈ 33.6 µM) | 32 µg/mL (≈ 33.6 µM) |  | 12 µM | 7.8 µM | > 64 µg/mL | 64 µg/mL (≈ 67.2 µM) | 
3 | CCCCCCCCCCCCCCCC(=O)N(C)[C@H](CO)C(=O)N[C@H](C)C(=O)NCC(=O)N(C)[C@@H]1C(=O)N[C@@H](C)C(=O)N[C@H](C(=O)NS(C)(=O)=O)Cc2ccc(O)c(c2)-c2cc1ccc2O [Compound 22] | 8 µg/mL (≈ 8.35 µM) | 16 µg/mL (≈ 16.7 µM) | > 64 µg/mL | 32 µg/mL (≈ 33.4 µM) | > 64 µg/mL | > 64 µg/mL | > 64 µg/mL | > 64 µg/mL | > 64 µg/mL | > 64 µg/mL | 2 µg/mL (≈ 2.09 µM) | 16 µg/mL (≈ 16.7 µM) | 16 µg/mL (≈ 16.7 µM) | 16 µg/mL (≈ 16.7 µM) | 16 µg/mL (≈ 16.7 µM) | 1 µM | 19 µM |  |  | 
4 | CCCCCCCCCCCCCCCC(=O)N(C)[C@H](CO)C(=O)N[C@H](C)C(=O)NCC(=O)N(C)[C@@H]1C(=O)N[C@@H](C)C(=O)N[C@H](C(=O)N[C@@H](C)C(=O)NS(C)(=O)=O)Cc2ccc(O)c(c2)-c2cc1ccc2O [Compound 23] |  |  |  |  |  |  |  |  |  |  |  |  |  |  |  |  |  |  |  | MIC (C. glutamicum DSM 44475): 8 µg/mL (≈ 7.77 µM); MIC ([1]; E. coli MIG1655 LepB(P84L)): 8 µg/mL (≈ 7.77 µM); MIC ([2]; P. aeruginosa PA01 LepB(P84L)): >64 µg/mL; MIC (R. equi DSM 6939): >64 µg/mL; MIC (S. agalactiae ATCC 13813): 32 µg/mL (≈ 31.1 µM); MIC (S. agalactiae COH-1; S. agalactiae COH-1): >64 µg/mL; MIC (S. aureus ATCC 29213): >64 µg/mL; MIC ([3]; S. aureus NCTC-8325 SpsB(P295)): 8 µg/mL (≈ 7.77 µM); MIC [4]: 8 µg/mL (≈ 7.77 µM); MIC ([5]; S. epidermidis RP62A SpsIB(S29P)): 16 µg/mL (≈ 15.5 µM); MIC ([6]; S. epidermidis RP62A SpsIB(S31P)): >64 µg/mL; MIC (S. epidermidis RP62A): 2 µg/mL (≈ 1.94 µM); MIC (S. pneumoniae D39): 8 µg/mL (≈ 7.77 µM); MIC (S. pneumoniae R800): 8 µg/mL (≈ 7.77 µM); MIC (S. pyogenes ATCC 19615): 16 µg/mL (≈ 15.5 µM); MIC (S. pyogenes M15448; S. pyogenes M15448): 16 µg/mL (≈ 15.5 µM); Kd (E. coli SPase; in vitro equilibrium Kd, read-out: Kd E. coli SPase): 3 µM; Kd (S. aureus SPase; in vitro equilibrium Kd, read-out: Kd S. aureus SPase): 8.9 µM
5 | CCCCCCCCCCCCCCCC(=O)N(C)[C@H](CO)C(=O)N[C@H](C)C(=O)NCC(=O)N(C)[C@@H]1C(=O)N[C@@H](C)C(=O)N[C@H](C(=O)NCC(=O)O)Cc2ccc(O)c(c2)-c2cc1ccc2O [Compound 24] | 64 µg/mL (≈ 68.2 µM) | 4 µg/mL (≈ 4.26 µM) | 32 µg/mL (≈ 34.1 µM) | 64 µg/mL (≈ 68.2 µM) |  | > 64 µg/mL | 32 µg/mL (≈ 34.1 µM) | 32 µg/mL (≈ 34.1 µM) | > 64 µg/mL | > 64 µg/mL | 2 µg/mL (≈ 2.13 µM) | 4 µg/mL (≈ 4.26 µM) | 8 µg/mL (≈ 8.53 µM) | 8 µg/mL (≈ 8.53 µM) |  | 1.1 µM | 2.9 µM | > 64 µg/mL | 16 µg/mL (≈ 17.1 µM) | MIC (R. equi DSM 6939; Rhodococcus (subgen. Prescottella) equi, DSM6939, read-out: MIC): > 64 µg/mL
